Data from patent publication US6809065B2, “Herbicide containing substituted pyrazole derivative as active ingredient” (SDS Biotech K.K., priority 2001, dated 2004).

Experiments:
[1] = test system: wheat (Triticum aestivum); experiment: Upland field foliage treatment (Test Example 1), crop; format: in vivo; conditions: foliage treatment 14th day after sowing, 1 kg active ingredient per hectare, evaluated 21st day, lower index = higher safety
In short: (§1)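 Weeds and crops were sown in upland soil under about 1 cm cover, and a wettable powder diluted in water was sprayed on the foliage 14 days after sowing at 1 kg active ingredient per hectare. Scoring was done 21 days after application on an index scale, where higher weed scores mean stronger herbicidal effect and lower crop scores mean greater crop safety.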

soybean (Glycine max) [2] = experiment: as above; format: in vivo; conditions: foliage treatment 14th day after sowing, 1 kg active ingredient per hectare, evaluated 21st day, lower index = higher safety
In short: as §1

Monochoria vaginalis = experiment: Paddy field treatment (Test Example 3); format: in vivo; conditions: paddy pot, submerged 4 cm, dropped on water surface 10th day after transplantation, 1 kg active ingredient per hectare, evaluated 21st day
In short: (§2)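 Weeds sown in puddled paddy soil under 4 cm water, with two-leaf Koshihikari rice transplanted at 3 cm depth. On day 10 after transplanting, wettable powder applied to the water surface at 1 kg active ingredient per hectare. Herbicidal effect and crop safety scored on an index 21 days later.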

Ammannia multiflora = experiment: Paddy field treatment (Test Example 3); format: in vivo; conditions: paddy pot, submerged 4 cm, dropped on water surface 10th day after transplantation, 1 kg active ingredient per hectare, evaluated 21st day
In short: as §2

Scirpus juncoides = experiment: Paddy field treatment (Test Example 3); format: in vivo; conditions: paddy pot, submerged 4 cm, dropped on water surface 10th day after transplantation, 1 kg active ingredient per hectare, evaluated 21st day
In short: as §2

[3] = test system: wheat (Triticum aestivum); experiment: Upland soil treatment (Test Example 2), crop; format: in vivo; conditions: soil surface treatment next day after sowing, 1 kg active ingredient per hectare, evaluated 21st day, lower index = higher safety
In short: (§3)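 Applies a soil-surface, pre-emergence spray of 1 kg active ingredient/ha (wettable powder in water) one day after sowing; weed control and crop injury are rated on an index scale three weeks later.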

soybean (Glycine max) [4] = experiment: Upland soil treatment (Test Example 2), crop; format: in vivo; conditions: soil surface treatment next day after sowing, 1 kg active ingredient per hectare, evaluated 21st day, lower index = higher safety
In short: as §3

Chenopodium album [5] = experiment: Upland soil treatment (Test Example 2); format: in vivo; conditions: soil surface treatment next day after sowing, wettable powder, 1 kg active ingredient per hectare, evaluated 21st day after application
In short: as §3

Digitaria adscendens [6] = experiment: Upland soil treatment (Test Example 2); format: in vivo; conditions: soil surface treatment next day after sowing, wettable powder, 1 kg active ingredient per hectare, evaluated 21st day after application
In short: as §3

Stellaria media [7] = experiment: Upland soil treatment (Test Example 2); format: in vivo; conditions: soil surface treatment next day after sowing, wettable powder, 1 kg active ingredient per hectare, evaluated 21st day after application
In short: as §3

Setaria viridis [8] = experiment: Upland soil treatment (Test Example 2); format: in vivo; conditions: soil surface treatment next day after sowing, wettable powder, 1 kg active ingredient per hectare, evaluated 21st day after application
In short: as §3

[9] = test system: rice (Oryza sative, variety: Koshihikari); experiment: Paddy field treatment (Test Example 3), crop; format: in vivo, Oryza sativa; conditions: transplanted rice two-leaf period, water surface treatment 10th day after transplantation, 1 kg active ingredient per hectare, evaluated 21st day, lower index = higher safety
In short: as §2

Echinochloa spp. = experiment: Paddy field treatment (Test Example 3); format: in vivo, Echinochloa crusgalli; conditions: paddy pot, submerged 4 cm, dropped on water surface 10th day after transplantation, 1 kg active ingredient per hectare, evaluated 21st day
In short: as §2

Chenopodium album [10] = experiment: Upland field foliage treatment (Test Example 1); format: in vivo; conditions: foliage treatment 14th day after sowing, wettable powder, 1 kg active ingredient per hectare, evaluated 21st day after application
In short: as §1

Digitaria adscendens [11] = experiment: Upland field foliage treatment (Test Example 1); format: in vivo; conditions: foliage treatment 14th day after sowing, wettable powder, 1 kg active ingredient per hectare, evaluated 21st day after application
In short: as §1

Stellaria media [12] = experiment: Upland field foliage treatment (Test Example 1); format: in vivo; conditions: foliage treatment 14th day after sowing, wettable powder, 1 kg active ingredient per hectare, evaluated 21st day after application
In short: as §1

Setaria viridis [13] = experiment: Upland field foliage treatment (Test Example 1); format: in vivo; conditions: foliage treatment 14th day after sowing, wettable powder, 1 kg active ingredient per hectare, evaluated 21st day after application
In short: as §1

Compound	Herbicidal activity Triticum aestivum [1]	Herbicidal activity Glycine max (soybean (Glycine max) [2])	Herbicidal activity Monochoria vaginalis (Monochoria vaginalis)	Herbicidal activity Ammannia multiflora (Ammannia multiflora)	Herbicidal activity Scirpus juncoides (Scirpus juncoides)	Herbicidal activity Triticum aestivum [3]	Herbicidal activity Glycine max (soybean (Glycine max) [4])	Herbicidal activity Chenopodium album (Chenopodium album [5])	Herbicidal activity Digitaria adscendens (Digitaria adscendens [6])	Herbicidal activity Stellaria media (Stellaria media [7])	Herbicidal activity Setaria viridis (Setaria viridis [8])	Herbicidal activity Oryza sativa [9]	Herbicidal activity Echinochloa spp. (Echinochloa spp.)	Herbicidal activity Chenopodium album (Chenopodium album [10])	Herbicidal activity Digitaria adscendens (Digitaria adscendens [11])	Herbicidal activity Stellaria media (Stellaria media [12])	Herbicidal activity Setaria viridis (Setaria viridis [13])
COC=C(Cn1nc(-c2cccc(C)c2)c(Cl)c1C)C(=O)OC [Compound 17]	0 (herbicidal effect of not less than 0% by weight and less than 10% by weight)	0 (herbicidal effect of not less than 0% by weight and less than 10% by weight)	5 (herbicidal effect of not less than 90% by weight)	5 (herbicidal effect of not less than 90% by weight)	4 (herbicidal effect of not less than 70% by weight and less than 90% by weight)	0 (herbicidal effect of not less than 0% by weight and less than 10% by weight)	0 (herbicidal effect of not less than 0% by weight and less than 10% by weight)	4 (herbicidal effect of not less than 70% by weight and less than 90% by weight)	4 (herbicidal effect of not less than 70% by weight and less than 90% by weight)	4 (herbicidal effect of not less than 70% by weight and less than 90% by weight)	4 (herbicidal effect of not less than 70% by weight and less than 90% by weight)	0 (herbicidal effect of not less than 0% by weight and less than 10% by weight)	5 (herbicidal effect of not less than 90% by weight)	5 (herbicidal effect of not less than 90% by weight)	4 (herbicidal effect of not less than 70% by weight and less than 90% by weight)	5 (herbicidal effect of not less than 90% by weight)	5 (herbicidal effect of not less than 90% by weight)
COC=C(Cn1nc(-c2cc(Cl)ccc2Cl)c(Br)c1C)C(=O)OC [Compound 31]	1 (herbicidal effect of not less than 10% by weight and less than 30% by weight)	1 (herbicidal effect of not less than 10% by weight and less than 30% by weight)	5 (herbicidal effect of not less than 90% by weight)	5 (herbicidal effect of not less than 90% by weight)	5 (herbicidal effect of not less than 90% by weight)	0 (herbicidal effect of not less than 0% by weight and less than 10% by weight)	0 (herbicidal effect of not less than 0% by weight and less than 10% by weight)	5 (herbicidal effect of not less than 90% by weight)	5 (herbicidal effect of not less than 90% by weight)	5 (herbicidal effect of not less than 90% by weight)	5 (herbicidal effect of not less than 90% by weight)	1 (herbicidal effect of not less than 10% by weight and less than 30% by weight)	5 (herbicidal effect of not less than 90% by weight)	5 (herbicidal effect of not less than 90% by weight)	5 (herbicidal effect of not less than 90% by weight)	5 (herbicidal effect of not less than 90% by weight)	5 (herbicidal effect of not less than 90% by weight)
COC=C(Cn1nc(-c2cccc(C)c2)c(Br)c1C)C(=O)OC [Compound 26]	0 (herbicidal effect of not less than 0% by weight and less than 10% by weight)	1 (herbicidal effect of not less than 10% by weight and less than 30% by weight)	5 (herbicidal effect of not less than 90% by weight)	5 (herbicidal effect of not less than 90% by weight)	4 (herbicidal effect of not less than 70% by weight and less than 90% by weight)	0 (herbicidal effect of not less than 0% by weight and less than 10% by weight)	0 (herbicidal effect of not less than 0% by weight and less than 10% by weight)	4 (herbicidal effect of not less than 70% by weight and less than 90% by weight)	4 (herbicidal effect of not less than 70% by weight and less than 90% by weight)	4 (herbicidal effect of not less than 70% by weight and less than 90% by weight)	4 (herbicidal effect of not less than 70% by weight and less than 90% by weight)	0 (herbicidal effect of not less than 0% by weight and less than 10% by weight)	5 (herbicidal effect of not less than 90% by weight)	5 (herbicidal effect of not less than 90% by weight)	5 (herbicidal effect of not less than 90% by weight)	5 (herbicidal effect of not less than 90% by weight)	4 (herbicidal effect of not less than 70% by weight and less than 90% by weight)
COC=C(Cn1nc(-c2cc(Cl)cc(Cl)c2)c(Br)c1C)C(=O)OC [Compound 32]	0 (herbicidal effect of not less than 0% by weight and less than 10% by weight)	0 (herbicidal effect of not less than 0% by weight and less than 10% by weight)	3 (herbicidal effect of not less than 50% by weight and less than 70% by weight)	3 (herbicidal effect of not less than 50% by weight and less than 70% by weight)	3 (herbicidal effect of not less than 50% by weight and less than 70% by weight)	0 (herbicidal effect of not less than 0% by weight and less than 10% by weight)	0 (herbicidal effect of not less than 0% by weight and less than 10% by weight)	4 (herbicidal effect of not less than 70% by weight and less than 90% by weight)	4 (herbicidal effect of not less than 70% by weight and less than 90% by weight)	4 (herbicidal effect of not less than 70% by weight and less than 90% by weight)	4 (herbicidal effect of not less than 70% by weight and less than 90% by weight)	0 (herbicidal effect of not less than 0% by weight and less than 10% by weight)	3 (herbicidal effect of not less than 50% by weight and less than 70% by weight)	4 (herbicidal effect of not less than 70% by weight and less than 90% by weight)	4 (herbicidal effect of not less than 70% by weight and less than 90% by weight)	4 (herbicidal effect of not less than 70% by weight and less than 90% by weight)	4 (herbicidal effect of not less than 70% by weight and less than 90% by weight)
